According to US20080311232A1, “Cooling Compounds” (Givaudan, SA, priority 2007, published 2008):

How the values were obtained:
Type in all cases: in vivo, human
panelists = assay: Cooling intensity: panelists taste aqueous solutions, compared with menthol at 2 ppm; details: tasted by small group of panelists
panelist [1] = assay: Application in toothpaste: toothgel brushed on a panelist's teeth, cooling perception; details: for cooling perception rated higher than the control: control = peppermint oil toothgel
Procedure: The materials were mixed in the toothgel, a piece of toothgel was put on a toothbrush and a panelist's teeth were brushed. The mouth was rinsed with water and the water spat out. […] The cooling perception lasted for 40 minutes.
The materials were mixed in the toothgel, a piece of toothgel was put on a toothbrush and a panelist's teeth were brushed. The mouth was rinsed with water and the water spat out. […] The cooling perception was rated 24% higher than the control and lasted for 70 minutes.
The materials were mixed in the toothgel, a piece of toothgel was put on a toothbrush and a panelist's teeth were brushed. The mouth was rinsed with water and the water spat out. […] The cooling perception was rated 18% higher than the control and lasted for 60 minutes.
The materials were mixed in the toothgel, a piece of toothgel was put on a toothbrush and a panelist's teeth were brushed. The mouth was rinsed with water and the water spat out. […] The cooling perception was rated 95% higher than the control and lasted for 65 minutes.
The materials were mixed in the toothgel, a piece of toothgel was put on a toothbrush and a panelist's teeth were brushed. The mouth was rinsed with water and the water spat out. […] The cooling perception was rated 100% higher than the control and lasted for 40 minutes.
The materials were mixed in the toothgel, a piece of toothgel was put on a toothbrush and a panelist's teeth were brushed. The mouth was rinsed with water and the water spat out. […] The cooling perception was rated 30% higher than the control and lasted for over 35 minutes.

panelist [2] = assay: Application in chewing gum: 2 g gum chewed by a panelist for 20 minutes, cooling perception; details: for cooling perception rated higher than the control: control = peppermint oil gum
Procedure: The gum base, and half of the sorbitol were mixed, maltitol syrup was added and then mixed with the gum mass. The rest of the powdered ingredients (rest of the sorbitol, mannitol, ace-K, aspartame) were added and mixed for about 1 minute, at which point glycerine was added and the gum mass was mixed for about 5 minutes, to form the blank chewing gum mass. Peppermint oil was worked into the mass and a piece of the resulting gum (2 g) was chewed by a panelist for […] and spat out. […] The cooling perception lasted far 50 minutes.
The chemical in the peppermint oil was worked into the blank chewing gum mass from Example 12 a) and a piece of the resulting gum (2 g) was chewed by a panelist for 20 minutes and spat out. […] The cooling perception was rated 43% higher than the control and lasted for over 60 minutes.
The chemical and peppermint oil was worked into the blank chewing gum mass from Example 12 a) and a piece of the resulting gum (2 g) was chewed by a panelist for 20 minutes and spat out. […] The cooling perception was rated 40% higher than the control and lasts for over 60 minutes.
The chemical in the peppermint oil was worked into the blank chewing gum mass from Example 12 a) and a piece of the resulting gum (2 g) was chewed by a panelist for 20 minutes and spat out. […] The cooling perception was rated 27% higher than the control and lasted for over 60 minutes.

[3] = toothgel: 0.10 g of 1% solution of compound in peppermint oil + 0.40 g peppermint oil
[4] = chewing gum: 0.50 g of 1% solution of compound in peppermint oil
[5] = toothgel: 0.05 g of 1% solution of compound in peppermint oil + 0.45 g peppermint oil
[6] = chewing gum: 0.05 g of 1% solution of compound in peppermint oil + 0.45 g peppermint oil
[7] = toothgel: 0.50 g of 1% solution of compound in peppermint oil
[8] = toothgel: 0.025 g compound + 0.50 g peppermint oil

Q: How did the “Concentration with a cooling intensity similar to or slightly higher than that of a solution of menthol at 2 ppm” value (from here on “Concentration”) (panelists) turn out when `CC1(C)[C@H]2CC[C@]1(C)[C@H](OC(=O)CCC(=O)O)C2` [Example 1, 4-oxo-4-(1S,2R,4S)1,7,7-trimethylbicyclo[2.2.1]heptan-2-yloxybutanoic acid] was run?
A: 0.003 ppm

Q: How did the cooling sensation felt (panelist [1]; [3]) turn out when `O=C(O)CCC(=O)O[C@H]1C[C@@H]2CC[C@H]1C2` [Example 3, 4-((1S,2S,4R)-bicyclo[2.2.1]heptan-2-yloxy)-4-oxobutanoic acid] was run?
A: intense cooling sensation

Q: What about the “duration of cooling perception” value (panelist [1]; [3]) of the same molecule?
A: 70 min

Q: And the “cooling perception rated higher than the control” value (panelist [1]; [3])?
A: 24%

Q: What about the cooling sensation felt (panelist [2]; [4]) of the same molecule?
A: cooling sensation

Q: And the “duration of cooling perception” value (panelist [2]; [4])?
A: over 60 minutes

Q: What about the “cooling perception rated higher than the control” value (panelist [2]; [4]) of the same molecule?
A: 43%

Q: Which “Concentration” value (panelists) does the source give for `CC1(C)[C@@H]2CC[C@@]1(C)[C@H](OC(=O)CCC(=O)O)C2` [Example 4, 4-oxo-4-((1R,2R,4R)-1,7,7-trimethylbicyclo[2.2.1]heptan-2-yloxy)butanoic acid] here?
A: 0.001 ppm

Q: What about the cooling sensation felt (panelist [1]; [5]) of the same molecule?
A: intense cooling sensation

Q: What about the “duration of cooling perception” value (panelist [1]; [5]) of the same molecule?
A: 40 min

Q: What about the “cooling perception rated higher than the control” value (panelist [1]; [5]) of the same molecule?
A: 100%

Q: And the cooling sensation felt (panelist [2]; [6])?
A: cooling sensation

Q: And the “duration of cooling perception” value (panelist [2]; [6])?
A: over 60 minutes

Q: And the “cooling perception rated higher than the control” value (panelist [2]; [6])?
A: 40%

Q: With `CCOC(=O)CC(=O)O[C@@H]1C2(C)CCC(C2)C1(C)C` (stereo partly drawn) [Example 6, Ethyl (2R)-1,3,3-trimethylbicyclo[2.2.1]heptan-2-yl malonate] as the molecule, how does the “Concentration” value (panelists) read?
A: 0.10 ppm

Q: What about the cooling sensation felt (panelist [1]; [3]) of the same molecule?
A: intense cooling sensation

Q: And the “duration of cooling perception” value (panelist [1]; [3])?
A: 60 min

Q: What about the “cooling perception rated higher than the control” value (panelist [1]; [3]) of the same molecule?
A: 18%

Q: And the cooling sensation felt (panelist [1]; [7])?
A: intense cooling sensation

Q: And the “duration of cooling perception” value (panelist [1]; [7])?
A: 65 min

Q: And the “cooling perception rated higher than the control” value (panelist [1]; [7])?
A: 95%

Q: What about the cooling sensation felt (panelist [2]; [4]) of the same molecule?
A: cooling sensation

Q: And the “duration of cooling perception” value (panelist [2]; [4])?
A: over 60 minutes

Q: What about the “cooling perception rated higher than the control” value (panelist [2]; [4]) of the same molecule?
A: 27%

Q: With `CN(C)C(=O)CCC(=O)O[C@@H]1C2(C)CCC(C2)C1(C)C` (stereo partly drawn) [Example 7, (2R)-1,3,3-trimethylbicyclo[2.2.1]heptan-2-yl 4-(dimethylamino)-4-oxobutanoate] as the molecule, how does the “Concentration” value (panelists) read?
A: 0.002 ppm

Q: How did the “Concentration” value (panelists) turn out when `C[C@@H](N)C(=O)OC1C2(C)CCC(C2)C1(C)C` (stereo partly drawn) [Example 8, D-alanine fenchyl ester] was run?
A: 0.20 ppm

Q: What about the cooling sensation felt (panelist [1]; [8]) of the same molecule?
A: intense cooling sensation

Q: And the “duration of cooling perception” value (panelist [1]; [8])?
A: over 35 minutes

Q: What about the “cooling perception rated higher than the control” value (panelist [1]; [8]) of the same molecule?
A: 30%

Q: Which “Concentration” value (panelists) does the source give for `CC1(C)[C@H]2CC[C@](C)(C2)[C@H]1OC(=O)CCC(=O)O` [Example 9, 4-oxo-4-((1R,2R,4S)-1,3,3-trimethylbicyclo[2.2.1]heptan-2-yloxy)butanoic acid] here?
A: 0.10 ppm

Q: Which “Concentration” value (panelists) does the source give for `CCNC(=O)C1CC(C)CCC1C(C)C` (centres unmarked) [WS-3, N-ethyl p-menthanecarboxamide, reference compound] here?
A: 1.5 ppm

Q: How did the “Concentration” value (panelists) turn out when `CC(C)[C@@H]1CC[C@@H](C)C[C@H]1O` [l-Menthol, reference compound] was run?
A: 2.0 ppm
